Experimental data from ChEMBL document CHEMBL1201862, “PubChem BioAssay data set” (2004).
Where “and” joins values, the source holds several entries; their conditions need not be identical. Equal values may be shown once.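 These data come from cells grown in 96-well plates and exposed to compound for 48 hours at five concentrations. GI50: concentration for 50% inhibition of growth.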 Calls of active or inactive are those of the source. No stated cut-off is given here; in the data, active = GI50 up to about 1.1 µM and inactive = higher.

How the values were obtained:
Assay in all cases: DTP human tumour cell line panel, 48 h
786-0 = tested on: 786-0
A498 = tested on: A498
A549 = tested on: A549
CCRF-CEM = tested on: CCRF-CEM
HL-60 = tested on: HL-60
IGROV-1 = tested on: IGROV-1
M14 = tested on: M14
MOLT-4 = tested on: MOLT-4
NCI/ADR-RES = tested on: NCI/ADR-RES
OVCAR-4 = tested on: OVCAR-4
PC-3 = tested on: PC-3
SF-295 = tested on: SF-295
SK-MEL-28 = tested on: SK-MEL-28
SK-MEL-5 = tested on: SK-MEL-5
SNB-19 = tested on: SNB-19
TK-10 = tested on: TK-10
HCC 2998 = tested on: HCC 2998
SR = tested on: SR
UACC-257 = tested on: UACC-257
MDA-N = tested on: MDA-N

Measured: GI50

O=S(=O)(Nc1nccs1)c1ccc([As](=O)(O)O)cc1
inactive: 786-0 > 100 µM | A498 > 100 µM | A549 > 100 µM | CCRF-CEM > 100 µM | HL-60 > 100 µM | IGROV-1 > 100 µM | M14 > 100 µM | MOLT-4 > 100 µM | NCI/ADR-RES > 100 µM | OVCAR-4 > 100 µM | PC-3 > 100 µM | SF-295 > 100 µM | SK-MEL-28 > 100 µM | SK-MEL-5 > 100 µM | SNB-19 > 100 µM | TK-10 > 100 µM

CC(Oc1ccc(Cl)cc1Cl)C(=O)NN1C(=O)CSC1c1ccc(Cl)cc1 (stereo not given)
inactive: 786-0 53.6 µM | A498 25.2 µM | A549 31 µM | HCC 2998 54.8 µM | HL-60 35.3 µM | IGROV-1 36.1 µM | M14 47.1 µM | MOLT-4 21.7 µM | NCI/ADR-RES > 100 µM | OVCAR-4 35.3 µM | PC-3 38.5 µM | SF-295 50.6 µM | SK-MEL-28 67.3 µM | SK-MEL-5 49.7 µM | SNB-19 30.4 µM | SR 19.5 µM | TK-10 80.5 µM | UACC-257 48.2 µM

CN(C)CCCNC1=C(Cl)C(=O)c2c(O)ccc(O)c2C1=O
inactive: 786-0 1.36 µM | A498 > 10 µM | A549 1.66 µM | CCRF-CEM 2.47 µM | HCC 2998 1.79 µM | IGROV-1 1.77 µM | M14 1.51 µM | MDA-N 1.85 µM | MOLT-4 2.58 µM | NCI/ADR-RES 2.44 µM | OVCAR-4 1.49 µM | PC-3 2.54 µM | SF-295 1.73 µM | SK-MEL-28 1.52 µM | SK-MEL-5 1.5 µM | SNB-19 1.94 µM | TK-10 3.84 µM | UACC-257 1.95 µM

Cc1ccc(S(=O)(=O)NC(=O)Nc2cc(Cl)c(S(N)(=O)=O)cc2S(N)(=O)=O)cc1
inactive: 786-0 > 100 µM | A549 > 100 µM | CCRF-CEM > 100 µM | HL-60 > 100 µM | IGROV-1 > 100 µM | M14 > 100 µM | MDA-N > 100 µM | MOLT-4 > 100 µM | NCI/ADR-RES > 100 µM | OVCAR-4 > 100 µM | SF-295 > 100 µM | SK-MEL-28 > 100 µM | SK-MEL-5 > 100 µM | SNB-19 > 100 µM | TK-10 > 100 µM | UACC-257 > 100 µM

COc1ccc2cc(C(C)C(O)c3cc(F)c(F)c(F)c3F)ccc2c1 (stereo not given)
inactive: 786-0 > 100 µM | A498 > 100 µM | A549 > 100 µM | CCRF-CEM > 100 µM | HCC 2998 > 100 µM | HL-60 18.7 µM | IGROV-1 > 100 µM | M14 > 100 µM | MDA-N > 100 µM | MOLT-4 > 10 µM | NCI/ADR-RES 97.9 µM | OVCAR-4 70.5 µM | PC-3 > 100 µM | SF-295 40.4 µM | SK-MEL-28 > 100 µM | SK-MEL-5 > 100 µM | SNB-19 > 100 µM | TK-10 > 100 µM | UACC-257 > 100 µM

CC1OC(OC2C(OC(=O)[C@]34CCC(C)(C)C[C@H]3C3=CC[C@@H]5[C@@]6(C)CC[C@H](OC7OC(C(=O)O)C(O)C(O)C7O)C(C)(C)[C@@H]6CC[C@@]5(C)[C@]3(C)CC4)OCC(O)C2O)C(O)C(O)C1OC1OCC(O)C(O)C1O (stereo not given in full)
inactive: 786-0 49.3 µM and 65.5 µM | A498 17.8 µM and 18.6 µM | A549 35.2 µM and 30.6 µM | CCRF-CEM 77.4 µM | HCC 2998 18.7 µM and 19.2 µM | HL-60 21.8 µM | IGROV-1 > 100 µM | M14 17.5 µM and 19.2 µM | MDA-N 17.9 µM and 18.2 µM | NCI/ADR-RES 93.5 µM | OVCAR-4 54 µM and 53.8 µM | SK-MEL-28 18.1 µM and 24 µM | UACC-257 45 µM and 29.8 µM

[O-][S+](Nc1ccccc1)c1ccc(N2CCOCC2)cc1 (stereo not given)
inactive: 786-0 88.9 µM | A549 43.9 µM | CCRF-CEM 54.2 µM | HCC 2998 91.2 µM | HL-60 53.8 µM | IGROV-1 13.6 µM | M14 > 100 µM | MOLT-4 44.7 µM | NCI/ADR-RES 51.9 µM | OVCAR-4 > 100 µM | SF-295 > 100 µM | SK-MEL-28 > 100 µM | SK-MEL-5 39.8 µM | SNB-19 > 100 µM | SR 60.3 µM | TK-10 > 100 µM | UACC-257 34.2 µM

Cc1ccc(/N=N/c2c(O)c3ccccc3[nH]c2=O)c(S(=O)(=O)N(C)C)c1
inactive: 786-0 > 100 µM | A498 > 100 µM | A549 > 100 µM | CCRF-CEM > 100 µM | HL-60 > 100 µM | IGROV-1 > 100 µM | M14 > 100 µM | MDA-N > 100 µM | NCI/ADR-RES > 100 µM | OVCAR-4 > 100 µM | PC-3 > 100 µM | SF-295 > 100 µM | SK-MEL-28 > 100 µM | SK-MEL-5 > 100 µM | SNB-19 > 100 µM | TK-10 > 100 µM | UACC-257 > 100 µM

CCCCCCCCCCCCC(CCCCCCCCCCCC)OP(=O)(O)O
inactive: 786-0 > 100 µM | A498 20.6 µM | A549 > 100 µM | CCRF-CEM > 100 µM | HCC 2998 > 100 µM | HL-60 47.3 µM | IGROV-1 87.3 µM | M14 > 100 µM | MOLT-4 59.2 µM | OVCAR-4 > 100 µM | SF-295 > 100 µM | SK-MEL-28 > 100 µM | SK-MEL-5 > 100 µM | SNB-19 91.6 µM | SR > 100 µM | TK-10 > 100 µM | UACC-257 > 100 µM

COC(=O)C1C=CCC2CCCCC21N1CCCC1 (stereo not given)
inactive: 786-0 > 100 µM | A498 > 100 µM | A549 71.8 µM | CCRF-CEM 53.1 µM | HCC 2998 69.2 µM | HL-60 19.7 µM | IGROV-1 > 100 µM | M14 > 100 µM | MOLT-4 64.4 µM | OVCAR-4 > 100 µM | SF-295 > 100 µM | SK-MEL-28 98.9 µM | SK-MEL-5 84.3 µM | SNB-19 82.2 µM | SR 76.7 µM | TK-10 > 100 µM | UACC-257 > 100 µM

O=[N+]([O-])c1ccc(/C=N/C2CCCCC2)cc1
inactive: 786-0 > 100 µM | A498 > 100 µM | A549 > 100 µM | CCRF-CEM > 100 µM | HCC 2998 > 100 µM | HL-60 > 100 µM | IGROV-1 > 100 µM | M14 > 100 µM | MOLT-4 > 100 µM | OVCAR-4 > 100 µM | SF-295 > 100 µM | SK-MEL-28 > 100 µM | SK-MEL-5 > 100 µM | SNB-19 > 100 µM | SR > 100 µM | TK-10 > 100 µM | UACC-257 > 100 µM
